Source: patent US11180470B2, “Herbicidal pyrimidine compounds” (BASF SE, priority 2016, dated 2021)

Tests used:
ECHCG [1] = test: greenhouse experiment, post-emergence treatment; assay type: in vivo, Echinocloa crus-galli; conditions: post-emergence method, application rate 2000 g/ha, scale from 0 to 100
Method: The seeds of the test plants were sown separately for each species. […] For this purpose, the test plants were either sown directly and grown in the same containers, or they were first grown separately as seedlings and transplanted into the test containers a few days prior to treatment. Depending on the species, the plants were kept at 10-25° C. or 20-35° C., respectively. The test period extended over 2 to 4 weeks. During this time, the plants were tended, and their response to the individual treatments was evaluated. Evaluation was carried out using a scale from 0 to 100. 100 means no emergence of the plants, or complete destruction of at least the aerial moieties, and 0 means no damage, or normal course of growth. A good herbicidal activity is given at values of at least 70 and a very good herbicidal activity is given at values of at least 85. The plants used in the greenhouse experiments were of the following species: [table]

AMARE = test: greenhouse experiment, post-emergence treatment; assay type: in vivo, Amaranthus retroflexus; conditions: post-emergence method, application rate 2000 g/ha, scale from 0 to 100
Description: (§1) The culture containers used were plastic flowerpots containing loamy sand with approximately 3.0% of humus as the substrate. The seeds of the test plants were sown separately for each species.
(§2) For the post-emergence treatment, the test plants were first grown to a height of 3 to 15 cm, depending on the plant habit, and only then treated with the active ingredients which had been suspended or emulsified in water. For this purpose, the test plants were either sown directly and grown in the same containers, or they were first grown separately as seedlings and transplanted into the test containers a few days prior to treatment.
(§3) Depending on the species, the plants were kept at 10-25° C. or 20-35° C., respectively.
(§4) The test period extended over 2 to 4 weeks. During this time, the plants were tended, and their response to the individual treatments was evaluated.
(§5) Evaluation was carried out using a scale from 0 to 100. 100 means no emergence of the plants, or complete destruction of at least the aerial moieties, and 0 means no damage, or normal course of growth. A good herbicidal activity is given at values of at least 70 and a very good herbicidal activity is given at values of at least 85.
(§6) The plants used in the greenhouse experiments were of the following species: […]

SETVI = test: greenhouse experiment, post-emergence treatment; assay type: in vivo, Setaria viridis; conditions: post-emergence method, application rate 2000 g/ha, scale from 0 to 100
Description: as §1, §2, §3, §4, §5, §6

ALOMY = test: greenhouse experiment, post-emergence treatment; assay type: in vivo, Alopecurus myosuroides; conditions: post-emergence method, application rate 2000 g/ha, scale from 0 to 100
Description: as §1, §2, §3, §4, §5, §6

APESV = test: greenhouse experiment, pre-emergence treatment; assay type: in vivo, Apera spica-venti; conditions: pre-emergence method, application rate 2000 g/ha, scale from 0 to 100
Description: (§7) The seeds of the test plants were sown separately for each species. For the pre-emergence treatment, the active ingredients, which had been suspended or emulsified in water, were applied directly after sowing by means of finely distributing nozzles. The containers were irrigated gently to promote germination and growth and subsequently covered with transparent plastic hoods until the plants had rooted. This cover caused uniform germination of the test plants, unless this had been impaired by the active ingredients. Depending on the species, the plants were kept at 10-25° C. or 20-35° C., respectively. The test period extended over 2 to 4 weeks. During this time, the plants were tended, and their response to the individual treatments was evaluated. Evaluation was carried out using a scale from 0 to 100. 100 means no emergence of the plants, or complete destruction of at least the aerial moieties, and 0 means no damage, or normal course of growth. A good herbicidal activity is given at values of at least 70 and a very good herbicidal activity is given at values of at least 85. The plants used in the greenhouse experiments were of the following species: [table]

ECHCG [2] = test: greenhouse experiment, pre-emergence treatment; assay type: in vivo, Echinocloa crus-galli; conditions: pre-emergence method, application rate 2000 g/ha, scale from 0 to 100
Description: as §7

ABUTH = test: greenhouse experiment, post-emergence treatment; assay type: in vivo, Abutilon theophrasti; conditions: post-emergence method, application rate 2000 g/ha, scale from 0 to 100
Description: as §1, §2, §3, §4, §5, §6

AVEFA = test: greenhouse experiment, post-emergence treatment; assay type: in vivo, Avena fatua; conditions: post-emergence method, application rate 2000 g/ha, scale from 0 to 100
Description: as §1, §2, §3, §4, §5, §6

Row | SMILES | herbicidal activity against ECHCG (ECHCG [1]) | herbicidal activity against AMARE (AMARE) | herbicidal activity against SETVI (SETVI) | herbicidal activity against ALOMY (ALOMY) | herbicidal activity against APESV (APESV) | herbicidal activity against ECHCG (ECHCG [2]) | herbicidal activity against ABUTH (ABUTH) | herbicidal activity against AVEFA (AVEFA)
1 | COC(=O)c1nc(C2CC2)ncc1-c1ncccc1F [Example 19] | very good (a very good herbicidal activity is given at values of at least 85) | very good (a very good herbicidal activity is given at values of at least 85) | very good (a very good herbicidal activity is given at values of at least 85) |  |  |  |  | 
2 | COC(=O)c1nc(C2CC2)ncc1-c1ncccc1Br [Example 28] |  |  | good (A good herbicidal activity is given at values of at least 70) | very good (a very good herbicidal activity is given at values of at least 85) | very good (a very good herbicidal activity is given at values of at least 85) | very good (a very good herbicidal activity is given at values of at least 85) |  | 
3 | COC(=O)c1nc(C2CC2)ncc1-c1ncc(F)cc1F [Example 31] |  |  | very good (a very good herbicidal activity is given at values of at least 85) |  | very good (a very good herbicidal activity is given at values of at least 85) |  | good (A good herbicidal activity is given at values of at least 70) | 
4 | COC(=O)c1nc(C2CC2)ncc1-c1ccncc1F [Example 33] |  | very good (a very good herbicidal activity is given at values of at least 85) | very good (a very good herbicidal activity is given at values of at least 85) |  | good (A good herbicidal activity is given at values of at least 70) |  |  | very good (a very good herbicidal activity is given at values of at least 85)
5 | COC(=O)c1nc(C2CC2)ncc1-c1cnccc1Br [Example 34] | very good (a very good herbicidal activity is given at values of at least 85) |  | very good (a very good herbicidal activity is given at values of at least 85) | very good (a very good herbicidal activity is given at values of at least 85) |  |  |  | 
6 | COC(=O)c1nc(C2CC2)ncc1-c1ncc(F)cc1Cl [Example 41] |  |  | very good (a very good herbicidal activity is given at values of at least 85) | very good (a very good herbicidal activity is given at values of at least 85) | very good (a very good herbicidal activity is given at values of at least 85) | very good (a very good herbicidal activity is given at values of at least 85) |  | very good (a very good herbicidal activity is given at values of at least 85)
7 | CCc1ncc(-c2ncccc2Br)c(C(=O)O)n1 [Example 49] |  |  | very good (a very good herbicidal activity is given at values of at least 85) |  |  | very good (a very good herbicidal activity is given at values of at least 85) |  | 
8 | COC(=O)c1nc(OC)ncc1-c1ncc(F)cc1F [Example 53] |  |  | good (A good herbicidal activity is given at values of at least 70) |  |  |  |  | 
9 | COC(=O)c1nc(C2CC2)ncc1-c1nc(C(F)(F)F)ccc1F [Example 61] |  |  | very good (a very good herbicidal activity is given at values of at least 85) | very good (a very good herbicidal activity is given at values of at least 85) | good (A good herbicidal activity is given at values of at least 70) | very good (a very good herbicidal activity is given at values of at least 85) |  | very good (a very good herbicidal activity is given at values of at least 85)
10 | COC(=O)c1nc(C2CC2)ncc1-c1cc(C(F)(F)F)ncc1Cl [Example 63] |  |  | very good (a very good herbicidal activity is given at values of at least 85) | very good (a very good herbicidal activity is given at values of at least 85) | very good (a very good herbicidal activity is given at values of at least 85) | very good (a very good herbicidal activity is given at values of at least 85) | very good (a very good herbicidal activity is given at values of at least 85) | 
